Tested on: FCA-induced inflammation of the rat hind paw
Test: Freund's complete adjuvant (FCA) model of inflammatory pain, paw withdrawal threshold (PWT)
Format: in vivo
Procedure: Test Animals: Each experiment uses rats weighing between 200-260 g at the start of the experiment. The rats are group-housed and have free access to food and water at all times, except prior to oral administration of a test compound when food is removed for 16 hours before dosing. A control group acts as a comparison to rats treated with a compound of Formulae I-XIII. The control group is administered the carrier as used for the test compound. The volume of carrier administered to the control group is the same as the volume of carrier and test compound administered to the test group.
To assess the actions of the compounds of Formulae I-XIII on the treatment of inflammatory pain the Freund's complete adjuvant (“FCA”) model of inflammatory pain was used. […] 24 hour post injection, the animal was assessed for response to noxious mechanical stimuli by determining the paw withdrawal threshold (PWT), or to noxious thermal stimuli by determining the paw withdrawal latency (PWL), as described below. […] Responses to noxious mechanical or thermal stimuli were determined 1, 3, and 5 hours post administration (admin). […]
Sensitivity to noxious mechanical stimuli can be measured in animals using the paw pressure test to assess mechanical hyperalgesia. […] PWT is determined once for each rat at each time point. PWT can be measured only in the injured paw, or in both the injured and non-injured paw. […]

## NC(=O)[C@H](CO)NC(=O)c1cccc(-c2ccc(Oc3ccc(F)cc3)cc2)n1 [Compound 47, 6-[4-(4-fluoro-phenoxy)-phenyl]-pyridine-2-carboxylic acid ((S)-1-carbamoyl-2-hydroxy-ethyl)-amide]
10 mg/kg oral (PO), 3 h
  increase in PWT: statistically significant increase
30 mg/kg oral (PO), 1, 3 and 5 h
  increase in PWT: statistically significant increase

From US9765029B2, “Pyridine compounds as sodium channel blockers” (Purdue Pharma L.P., priority 2010, dated 2017)
